Assay results taken from patent publication US8575116B1, “Polyacetylenic compounds for protecting against pancreatic islet atrophy” (Academia Sinica, priority 2010, dated 2013).

Columns and labels:
[1] = Body weight of db/db mice during treatment; type: in vivo, mouse
Procedure: Tables 3 and 4 show the effects of cytopiloyne on body weight and food intake in db/db mice, respectively. Diabetic db/db mice at 6 to 8 weeks of age were allowed free access to food. These mice were treated with vehicle, glimepiride (GLM, 2.5 mg/kg/day), or cytopiloyne (CP, 0.5 and 2.5 mg/kg/day). Mean body weight and food intake of each group were measured from 0 to 6 weeks post-treatment. The number of mice (n) is indicated in parentheses.

[2] = tested on: insulin mRNA in rat primary pancreatic islet cells; assay: Real-time RT-PCR of insulin mRNA relative to L13 in rat pancreatic islet cells; type: cell-based
STZ-treated C57BL mice = assay: Insulin sensitizer test: oral dose before insulin injection in STZ-treated C57BL mice; type: in vivo, mouse; conditions: cytopiloyne 0.5 and 2.5, glimepiride 2.5, metformin 60 mgkg^−1 oral; insulin 2.5 IUkg^−1
Procedure: FIGS. 3A-C show cytopiloyne-mediated insulin release depends on pancreatic islet cells. (A) Rat pancreatic islet cells were incubated with glucose-free KRB buffer containing vehicle or cytopiloyne at 1.5, 3, 7, 14, 28 and 42 μM (FIG. 3A-i). Similarly, rat pancreatic islet cells were incubated with KRB buffer containing vehicle, glimepiride (GLM, 10 μM) or cytopiloyne at 1.5, 3, 7, 14, 28 and 42 μM in the presence of 3.3 mM glucose (LG, FIG. 3A-ii) or 16.7 mM glucose (HG, FIG. 3A-iii). The insulin levels were determined using an insulin ELISA kit. The data presented as mean±SEM of 3 independent experiments. (B) Fed C57BL mice, which had already received an injection of STZ, were administered with an oral dose of vehicle, cytopiloyne (CP, 0.1, 0.5 and 2.5 mgkg^−1), and an intraperitoneal injection of insulin (Ins, 2.5 IUkg^−1). Blood sugar levels in the STZ-treated mice were determined using a glucometer. (C) C57BL mice, which had already received STZ, were orally administered with a single dose of vehicle, cytopiloyne (CP, 0.5 and 2.5 mgkg^−1), glimepiride (GLM, 2.5 mgkg^−1), or metformin (60 mgkg^−1), followed by an intraperitoneal injection with insulin (Ins). Blood sugar levels in the STZ-treated mice were determined using a glucometer. All the results from 3 independent experiments are expressed as mean±SEM, and P<0.05 was considered to be statistically significant (*). The number of mice (n) is indicated in parentheses.
To deplete pancreatic β-cells in mice, 6-week-old C57BL females (NLAC, Taipei, Taiwan) were intraperitoneally injected with STZ at 200 mgkg^−1. STZ-treated females with postprandial blood sugar over 500 mgdl^−1 were grouped. […] Blood glucose levels were monitored for 4 h. To distinguish sensitizer activity from releaser activity of cytopiloyne, STZ-treated C57BL mice were tube-fed with vehicle, glimepiride (2.5 mgkg^−1), metformin (60 mgkg^−1) or cytopiloyne (0.5 and 2.5 mgkg^−1) 1 h before insulin injection (2.5 IUkg^−1). Blood glucose levels in the mice were monitored from 0 to 4 h after insulin injection.

db/db mice = assay: Blood insulin after a single oral dose in fed diabetic db/db mice; type: in vivo, mouse; conditions: for blood insulin levels compared to vehicle, effect in words: single dose, db/db mice; for Blood insulin level: fed db/db mice
Procedure: After 0.5 h, the levels of postprandial blood sugar and insulin from the mice were monitored for additional 4 h. For continued administration, diabetic db/db males were grouped and tube-fed with vehicle, cytopiloyne (0.5 or 2.5 mgkg^−1 day^−1) or glimepiride (2.5 mg kg^−1 day^−1) for the indicated time, while levels of blood sugar, insulin, and glycosylated HbA1c, and glucose tolerance in these mice were determined. To evaluate the prophylaxis of diabetes, diabetes-free db/db mice at 4 weeks of age were tube-fed with vehicle or cytopiloyne (CP, 0.5 mgkg^−1), once a day, for 4 weeks. Unless indicated otherwise, the mice were fasted for 16 h, then Postprandial blood glucose and insulin in these mice were measured.
Glucose levels in mouse blood samples were measured using an Elite® glucometer (Bayer, Pittsburgh, Pa., USA). Insulin levels in blood samples or islet cell supernatants were determined by ELISA assays (Mercodia, Uppsala, Sweden). The levels of glycosylated HbA1c in mouse blood samples were measured using DCA 2000 analyzer (Bayer, Pittsburgh, Pa., USA).
The same procedure as Table 1 was performed. Blood samples at the indicated time interval (0, 0.5, 1, 2, and 4 h) were collected from the retro-orbital vein of those mice and the insulin levels in each blood sample were determined using ELISA kits. The number of mice used (n) is indicated in parentheses in the first column.

adiponectin = assay: Real-time RT-PCR of adiponectin mRNA relative to GAPDH in 3T3-L1 cells; type: cell-based, mouse
[3] = tested on: pancreatic islets of db/db mice; assay: Pancreatic islet histology/immunohistochemistry in db/db mice; type: in vivo, mouse; conditions: for pancreatic islet structure after long-term treatment: db/db mice 12 to 14 weeks old, cytopiloyne 0.5 and 2.5, glimepiride 2.5 mgkg^−1 day^−1 (FIG. 1F)
Procedure: FIGS. 1A-F show the anti-diabetic effects of cytopiloyne in db/db mice during long-term treatment. (A) Chemical structure of cytopiloyne (2-β-D-glucopyranosyloxy-1-hydroxytrideca-5,7,9,11-tetrayne). (B) Four groups of 6-to-8-week-old diabetic db/db mice were tube-fed with vehicle, cytopiloyne (CP, 0.5 and 2.5 mgkg^−1 day^−1) or glimepiride (GLM, 2.5 mgkg^−1 day^−1) from 0 to 42 days post-treatment. Blood glucose (BG) levels in these mice were measured. (C) Blood insulin levels from the mice of FIG. 1B. (D) IPGTT was performed in the db/db mice of FIG. 1B on day 0, 28 and 42, and blood glucose levels were monitored for 3.5 h. (E) The percentage of glycosylated HbAlc of whole blood from the mice of FIG. 1B on day 0 and 42. (F) Pancreata of 8- and 16-week-old db/db males, which had received the same treatment as FIG. 1B for 2 (images a-h) and 10 (images i-p) weeks, were stained with hematoxylin and eosin (H&E, images a, c, e, g, i, k, m and o) or hematoxylin and anti-insulin (H&I, images b, d, f, h, j, l, n and p). The arrowheads indicate pancreatic islets. Scale bars, 200 μm. Results from 3 independent experiments are expressed as mean±SEM, and P<0.05 was considered to be statistically significant (*). The number of mice (n) is indicated in parentheses.
Pancreata from db/db males with continuous drug administration were snap frozen in OCT™ compound and stained with hematoxylin and eosin or anti-insulin antibody, followed by diaminobenzidine tetrahydrochloride development. Multiple parallel sections of each pancreas were analyzed by light microscopy.

[4] = single oral dose 2.5 mg/kg, 0 h
[5] = single oral dose 2.5 mg/kg, 0.5 h
[6] = single oral dose 2.5 mg/kg, 1 h
[7] = single oral dose 2.5 mg/kg, 2 h
[8] = single oral dose 2.5 mg/kg, 4 h

Structure (SMILES) | Mean body weight ([1]; 2.5 mg/kg/day, week 0) [g/mouse] | Mean body weight ([1]; 2.5 mg/kg/day, week 1) [g/mouse] | Mean body weight ([1]; 2.5 mg/kg/day, week 2) [g/mouse] | Mean body weight ([1]; 2.5 mg/kg/day, week 4) [g/mouse] | Mean body weight ([1]; 2.5 mg/kg/day, week 6) [g/mouse] | blood sugar lowering when dosed 60 min before insulin injection (STZ-treated C57BL mice) | blood insulin levels compared to vehicle, effect in words (db/db mice) | Blood insulin level (db/db mice; [4]) [µg/L] | Blood insulin level (db/db mice; [5]) [µg/L] | Blood insulin level (db/db mice; [6]) [µg/L] | Blood insulin level (db/db mice; [7]) [µg/L] | Blood insulin level (db/db mice; [8]) [µg/L] | pancreatic islet structure after long-term treatment [3] | also measured
CCC1=C(C)CN(C(=O)NCCc2ccc(S(=O)(=O)NC(=O)N[C@H]3CC[C@H](C)CC3)cc2)C1=O [glimepiride, reference compound] | 26.9 ± 1.2 | 30.3 ± 2.7 | 30.7 ± 3.0 | 35.2 ± 1.8 | 36.3 ± 2.1 | little, if any, lowering effect on blood sugar | significantly elevated the blood insulin levels | 13.9 ± 1.2 | 19.3 ± 4.2 | 26.3 ± 3.3 | 15.9 ± 1.7 | 11.8 ± 2.1 | sporadic islets | insulin mRNA relative to L13 mRNA ([2]; 10 μM, rat islet cells, 24 h): slightly decreased insulin transcription; adiponectin expression level, times control levels (adiponectin; mouse, 8 days, 10 μM): 9 times; pancreatic islet structure after long-term treatment ([3]; listed as Glimepiride): failed to provide such a protection
CC#CC#CC#CC#CCCC(CO)O[C@@H]1O[C@H](CO)[C@@H](O)[C@H](O)[C@H]1O (stereo partly drawn) [cytopiloyne, 2-β-D-glucopyranosyloxy-1-hydroxytrideca-5,7,9,11-tetrayne] | 27.1 ± 2.4 | 30.0 ± 2.5 | 31.7 ± 1.5 | 33.3 ± 4.1 | 36.4 ± 3.7 | little, if any, lowering effect on blood sugar | significantly elevated the blood insulin levels | 12.5 ± 1.2 | 25.5 ± 1.2 | 18.9 ± 3.3 | 17.6 ± 1.7 | 8.9 ± 2.1 | much greater preservation of islet structure | Mean body weight ([1]; 0.5 mg/kg/day, week 0): 28.2 ± 3.0 g/mouse; Mean body weight ([1]; 0.5 mg/kg/day, week 1): 29.7 ± 3.1 g/mouse; Mean body weight ([1]; 0.5 mg/kg/day, week 2): 32.3 ± 3.3 g/mouse; Mean body weight ([1]; 0.5 mg/kg/day, week 4): 34.1 ± 2.9 g/mouse; Mean body weight ([1]; 0.5 mg/kg/day, week 6): 34.8 ± 2.8 g/mouse; body weight compared to control mice, in words ([1]; 6-week-treatment): did not significantly increase body weight; up-regulation of insulin transcription relative to that by 16.7 mM glucose ([2]; 28 μM (FIGS. 4A-B)): 40%; insulin mRNA relative to L13 mRNA, fold ([2]; 28 μM, rat islet cells, 24 h): around 2 times; Blood insulin level (db/db mice; single oral dose 0.1 mg/kg, 0 h): 17.2 ± 4.7 µg/L; Blood insulin level (db/db mice; single oral dose 0.1 mg/kg, 0.5 h): 21.0 ± 1.3 µg/L; Blood insulin level (db/db mice; single oral dose 0.1 mg/kg, 1 h): 15.5 ± 0.6 µg/L; Blood insulin level (db/db mice; single oral dose 0.1 mg/kg, 2 h): 14.1 ± 0.5 µg/L; Blood insulin level (db/db mice; single oral dose 0.1 mg/kg, 4 h): 9.7 ± 1.3 µg/L; Blood insulin level (db/db mice; single oral dose 0.5 mg/kg, 0 h): 15.7 ± 1.9 µg/L; Blood insulin level (db/db mice; single oral dose 0.5 mg/kg, 0.5 h): 22.6 ± 1.9 µg/L; Blood insulin level (db/db mice; single oral dose 0.5 mg/kg, 1 h): 16.0 ± 2.4 µg/L; Blood insulin level (db/db mice; single oral dose 0.5 mg/kg, 2 h): 12.8 ± 0.7 µg/L; Blood insulin level (db/db mice; single oral dose 0.5 mg/kg, 4 h): 12.2 ± 1.9 µg/L; adiponectin expression (adiponectin; 5, 25 and 50 μM, 3T3-L1 cells): slight reduction in adiponectin expression; protection against islet atrophy ([3]; low dose 0.5 mgkg^−1 day^−1, db/db mice (FIG. 1F)): protected against islet atrophy
